For seven molecules, EC50 results are on record in PubChem BioAssay AID588412 (NMMLSC, 2011).

Molecules are shown by their SMILES. The source made the active and inactive calls.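 The calls were made as follows: active = fitted EC50 below about 63 µM, meaning a log molar EC50 under -4.2; inactive = the rest.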

The assay deals with Integrin alpha-4 (Homo sapiens) (UniProt P13612). As to the kind of experiment: VLA-4 ligand competition with LDV-FITC, dose response, orthogonal assay, U937 cells, flow cytometry, set 1 (AID 588412). The note with it: flow cytometry MCF.
Sequence of Integrin alpha-4 (Homo sapiens) (P13612 whole entry, looked up): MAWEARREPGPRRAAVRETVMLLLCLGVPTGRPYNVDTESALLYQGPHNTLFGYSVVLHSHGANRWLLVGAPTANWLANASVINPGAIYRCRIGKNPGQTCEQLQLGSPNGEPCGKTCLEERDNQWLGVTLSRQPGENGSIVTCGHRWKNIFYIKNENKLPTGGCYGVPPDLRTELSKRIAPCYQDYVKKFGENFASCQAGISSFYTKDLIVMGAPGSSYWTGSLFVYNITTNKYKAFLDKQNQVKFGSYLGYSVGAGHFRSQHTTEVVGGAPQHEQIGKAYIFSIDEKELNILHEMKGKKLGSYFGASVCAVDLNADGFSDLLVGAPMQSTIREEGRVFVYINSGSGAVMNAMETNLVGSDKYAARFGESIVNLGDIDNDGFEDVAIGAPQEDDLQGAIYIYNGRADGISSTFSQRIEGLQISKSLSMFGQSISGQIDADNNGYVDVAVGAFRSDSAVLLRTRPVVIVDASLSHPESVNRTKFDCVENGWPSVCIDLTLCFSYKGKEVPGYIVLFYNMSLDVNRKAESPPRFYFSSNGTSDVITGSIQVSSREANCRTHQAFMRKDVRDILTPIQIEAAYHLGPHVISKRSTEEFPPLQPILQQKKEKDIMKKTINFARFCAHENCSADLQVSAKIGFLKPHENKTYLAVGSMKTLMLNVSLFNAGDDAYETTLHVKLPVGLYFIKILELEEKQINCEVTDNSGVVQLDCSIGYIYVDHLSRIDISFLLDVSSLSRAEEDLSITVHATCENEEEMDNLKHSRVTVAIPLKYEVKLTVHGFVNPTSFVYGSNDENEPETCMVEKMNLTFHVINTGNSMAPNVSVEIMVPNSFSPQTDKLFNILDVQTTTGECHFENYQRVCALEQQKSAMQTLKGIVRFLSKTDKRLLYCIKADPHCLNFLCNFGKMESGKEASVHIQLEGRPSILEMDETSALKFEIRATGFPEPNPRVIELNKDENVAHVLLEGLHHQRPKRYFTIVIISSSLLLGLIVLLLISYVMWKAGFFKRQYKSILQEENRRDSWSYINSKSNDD
For the molecule `COc1cccc(-c2sc3ccccc3c2-c2ccc(OCCN3CCCC3)cc2)c1`, the 50% effective concentration (EC50) was 24.6 µM.

As for `COc1cccc(-c2sc3ccccc3c2-c2ccc(OCCN(C)C)cc2)c1`, the EC50 was 24.5 µM.

With `CN(C)CCOc1ccc(-c2c(-c3ccccc3)sc3ccccc23)cc1`, the EC50 was 30.2 µM.

As for `c1ccc(-c2sc3ccccc3c2-c2ccc(OCCN3CCCC3)cc2)cc1`, the EC50 was 28.2 µM.

Regarding `COc1ccc(-c2sc3ccccc3c2-c2ccc(OCCN(C)C)cc2)cc1`, the EC50 is 16.3 µM.

Take `c1ccc2c(-c3ccc(OCCN4CCCC4)cc3)c(-c3ccsc3)sc2c1`: the EC50 is 21 µM.

For the molecule `c1ccc2c(-c3ccc(OCCN4CCCCC4)cc3)c(-c3ccsc3)sc2c1`, the EC50 entry was “inactive”.
